# Experimental data taken from paper PMC9161374 (Science Translational Medicine, 2022).
# Where “and” joins values, the source holds several entries; their conditions need not be identical. Identical values can stand only once.
# Legend:
# [1] = Tissue distribution study in rats; format: in vivo, Sprague Dawley rats; conditions: rat, oral 100 mg/kg; for Cmax, GS-441525 in brain / Cmax, GS-441525 in kidney / Cmax, GS-441525 in liver / Cmax, GS-441525 in lung / Cmax, RTP in kidney / Cmax, RTP in liver / Cmax, RTP in lung: individual animals
# Description: Three rats in each group were anesthetized at 1-, 4-, and 24-hours post-dosing. Blood samples were collected into the heparinized tubes which containing PhosSTOP and DTNB and centrifuged. Tissue samples, including liver, kidney, and lung were harvested after perfusion with saline and immediately homogenized for further analysis as previously described ([64]). […] For RMP and RTP determination, 50 μL of plasma or homogenate was immediately added to 150 μL of 2% formic acid and 5 μL of 10 μM ^13C,^15N-adenosine triphosphate (ATP) aqueous solution, then vortexed thoroughly and centrifuged at 4°C. Supernatant in a volume of 180 μL was mixed with an equivalent volume of water for solid-phase extraction (SPE) with a weak anion exchange plate (Waters Oasis WAX μElution plate). Finally, the eluate was gently evaporated to dryness under a gentle stream of air, and the residue was reconstituted with 100 μL H2O for analysis on a Waters Positive Pressure-96 processor.
# [2] = test system: SARS-CoV-2 (strain B.1); parameters: species or system KI-hACE2 mice; conditions: mouse, in vivo
# [3] = test system: SARS-CoV-2 (strain B.1); experiment: SARS-CoV-2 infection in Ad5-hACE2 mice; format: in vivo, Ad5-hACE2 BALB/c mice
# [4] = pKa determination (fast-UV, Sirius T3); format: physicochemical; conditions: methanol cosolvent titration (Sirius T3 Titrator); read-out: pKa Value (Basic)
# Description: The pK a value of test compounds were detected by using a fast-UV method with Sirius T3 Titrator. First, the blank calibration and Fast UV buffer calibration were performed where an empty sample vial was placed in the sample position. The buffer was fully titrated, and reference spectra were collected at all pHs. The sample was then detected with the following process: Methanol was used as a cosolvent to measure the psKa (cosolvent dissociation constant). Five μL of the compound stock solution of 10 mM was added to a sample vial. Three weight/volume ratios of methanol cosolvent were tested and the total starting volume for titration was set to 1.5 mL. A spectrometer detected the turbidity, and the pH range of titration by a fast UV method was 2 to 12. The titration data was obtained from a proper titration and the psKa test result was obtained by Yasuda-Shedlovsky extrapolation method for fast UV psKa method.
# [5] = test system: SARS-CoV-2 (Omicron, B.1.1.529); experiment: microbe, parasite or virus in culture; conditions: for EC50: Severe acute respiratory syndrome coronavirus 2, Vero C1008, 48 h, read-out: EC50 in Vero E6 cells, SARS-CoV-2 (Omicron, B.1.1.529); for EC90: Severe acute respiratory syndrome coronavirus 2, Vero C1008, read-out: EC90 (Confidence 95%)
# [6] = Thermodynamic solubility in water; format: physicochemical; conditions: ultrapure water, 25°C
# Description: Test compounds were weighed out for measuring the solubility (about 1.5 mg each in three separate 1.5 mL glass vials). For each compound, one vial was used to do the standard and the other two were used to measure the solubility in duplicate. The proper volume of ultrapure water was added to each vial of the solubility sample plate using pipettes. One stir stick was added to each vial and the vials were sealed using a molded polytetrafluoroethylene (PTFE)/silicone plug. […] Then the stir sticks were removed using a magnet, and the samples were transferred from the solubility sample plate into a filter plate with pipettes. All compounds were filtered under a vacuum condition. The filtrate was diluted 1000-fold with a mixture of H2O and acetonitrile (1:1 in v/v). The plates were vortexed for 5 min. For standards (STD), the necessary volume was calculated to dissolve each standard sample to the concentration of 1.5 mg/mL. DMSO was added to each standard sample. The standard vials were covered. The standard plate was placed on the Eppendorf Thermomixer Comfort plate shaker for 5 min at 25°C and 1100 rpm. After 5 min, each compound was completely dissolved. […]
# [7] = LogP determination (1-octanol/PBS pH 7.4); format: physicochemical; conditions: 1-octanol/PBS pH 7.4, pH 7.4
# Description: The stock solutions of test compounds were prepared in DMSO to 10 mM or 30 mM. The 5 μL of stock solution (30 mM) or 15 μL of stock solution (10 mM) of each sample was placed into their proper 96-well rack. […] The assay was performed in duplicate. One stir stick was added to each vial and sealed with a molded PTFE/Silicone plug. […] After incubation, the stir sticks were removed by a magnet. To separate the phases, the samples were transferred and centrifuged at 25°C at 20,000 g for 20 min. The upper (1-octanol) and lower (buffer) phases were separated and transferred to the empty tubes. Aliquots of 5 μL were taken from the upper phase, followed by 495 μL of methanol. After 1 min of a vortex, aliquots of 50 μL were taken from the diluent, followed by 450 μL of methanol. Aliquots of 50 μL were taken from the lower phase, followed by 450 μL of methanol. The samples were evaluated by LC-MS/MS analysis, and all calculations were carried out using Microsoft Excel.
# [8] = macaques, NCATS of NIH ref 47; cited from earlier work
# [9] = Severe acute respiratory syndrome coronavirus 2, Vero C1008, Omicon, Vero E6, replicates
Structure (SMILES),"Cmax, GS-441525 in brain ([1]; 1h, 100 mg/kg)","Cmax, GS-441525 in kidney ([1]; 1h, 100 mg/kg)","Cmax, GS-441525 in lung ([1]; 1h, 100 mg/kg)","Cmax, GS-441525 in kidney ([1]; 4h, 100 mg/kg)","Cmax, GS-441525 in lung ([1]; 4h, 100 mg/kg)","Cmax, RTP in lung ([1]; 4h, 100 mg/kg)","Cmax, GS-441525 in brain ([1]; 24h, 100 mg/kg)","Cmax, GS-441525 in kidney ([1]; 24h, 100 mg/kg)","Cmax, GS-441525 in lung ([1]; 24h, 100 mg/kg)","Cmax, RTP in lung ([1]; 24h, 100 mg/kg)",EC50 [5] [nM],"inhibition at 0.625 µM [5, 9] [%]","inhibition at 2.5 µM [5, 9] [%]","inhibition at 5 µM [5, 9] [%]","inhibition at 10 µM [5, 9] [%]",EC90 [5] [nM],other results
CC(C)C(=O)OC[C@H]1O[C@@](C#N)(c2ccc3c(N)ncnn23)[C@H](O)[C@@H]1O [ATV006],0.717 nmol/kg and 1.164 nmol/kg and 1.176 nmol/kg,220.56 nmol/kg and 166.84 nmol/kg and 182.64 nmol/kg,49 nmol/kg and 29.492 nmol/kg and 44.72 nmol/kg,49.24 nmol/kg and 31.336 nmol/kg and 40.16 nmol/kg,10.048 nmol/kg and 8.088 nmol/kg and 8.604 nmol/kg,0.328 nmol/kg and 0.343 nmol/kg and 0.26 nmol/kg,0 nmol/kg (2×) and 0.0506 nmol/kg,0.54 nmol/kg and 7 nmol/kg and 0.459 nmol/kg,0.136 nmol/kg and 1.289 nmol/kg and 0.0964 nmol/kg,0.191 nmol/kg and 0.249 nmol/kg and 0 nmol/kg,106,99.7,99.9,100,100,269,"Cmax, GS-441525 in liver ([1]; 1h, 100 mg/kg): 56.04 nmol/kg and 36.188 nmol/kg and 53.92 nmol/kg; Cmax, RTP in kidney ([1]; 1h, 100 mg/kg): 0.0784 nmol/kg and 0 nmol/kg and 0.0835 nmol/kg; Cmax, RTP in liver ([1]; 1h, 100 mg/kg): 0.279 nmol/kg and 1.085 nmol/kg and 1.739 nmol/kg; Cmax, RTP in lung ([1]; 1h, 100 mg/kg): 0.167 nmol/kg and 0.107 nmol/kg and 0.1 nmol/kg; Cmax, GS-441525 in brain ([1]; 4h, 100 mg/kg): 0.208 nmol/kg and 0.227 nmol/kg and 0.506 nmol/kg; Cmax, GS-441525 in liver ([1]; 4h, 100 mg/kg): 21.084 nmol/kg and 14.292 nmol/kg and 18.936 nmol/kg; Cmax, RTP in kidney ([1]; 4h, 100 mg/kg): 0.354 nmol/kg and 0.345 nmol/kg and 0.186 nmol/kg; Cmax, RTP in liver ([1]; 4h, 100 mg/kg): 1.765 nmol/kg and 0.82 nmol/kg and 0.878 nmol/kg; Cmax, GS-441525 in liver ([1]; 24h, 100 mg/kg): 0.243 nmol/kg and 2.843 nmol/kg and 0.303 nmol/kg; Cmax, RTP in kidney ([1]; 24h, 100 mg/kg): 0.0664 nmol/kg and 0.068 nmol/kg and 0 nmol/kg; Cmax, RTP in liver ([1]; 24h, 100 mg/kg): 0.325 nmol/kg and 0.223 nmol/kg and 0.759 nmol/kg; SARS-CoV-2 gRNA and sgRNA in lung [2]: hardly detectable; Lung viral titer, Log10 (FFU/g) ([3]; 250mg/kg orally once daily, 2 dpi, FFA, individual mice): 3.924 Log10 (FFU/g) and 2.623 Log10 (FFU/g) and 3.577 Log10 (FFU/g) and 3.827 Log10 (FFU/g); viral load and pathological damage of the lung ([3]; ATV006 250 mg/kg, EIDD-2801 500 mg/kg, orally once daily): reduce the viral load and pathological damage of the lung; pKa [4]: 3.66; inhibition at 0.008 µM ([5]; Severe acute respiratory syndrome coronavirus 2, Vero C1008, Omicon, 0.008 uM, Vero E6, replicates): 0%; inhibition at 0.208 µM ([5]; Severe acute respiratory syndrome coronavirus 2, Vero C1008, Omicon, 0.208 uM, Vero E6, replicates): 81.1%; solubility at 24 h [6]: 686 µg/mL; logP at 1 h [7]: 0.86"
"N#C[C@@]1(c2ccc3c(N)ncnn23)O[C@H](CO)[C@@H](O)[C@H]1O [GS-441524, reference compound]",0.094 nmol/kg and 0 nmol/kg and 0.045 nmol/kg,42.2 nmol/kg and 25.492 nmol/kg and 37.804 nmol/kg,6.048 nmol/kg and 4.152 nmol/kg and 6.604 nmol/kg,28.184 nmol/kg and 26.156 nmol/kg and 22.136 nmol/kg,4.468 nmol/kg and 3.046 nmol/kg and 3.148 nmol/kg,0 nmol/kg (2×) and 0.0718 nmol/kg,0.0569 nmol/kg and 0.0928 nmol/kg and 0.0692 nmol/kg,0.0683 nmol/kg and 0.0848 nmol/kg and 0.152 nmol/kg,0.134 nmol/kg and 0.0467 nmol/kg and 0.0435 nmol/kg,0 nmol/kg (2×) and 0.04488 nmol/kg,190,96.5,100,100,100,363,"Cmax ([1]; GS-441524 in brain): 0.073 µmol/kg; Cmax ([1]; GS-441524 in kidney): 35.165 µmol/kg; Cmax ([1]; GS-441524 in liver): 8.776 µmol/kg; Cmax ([1]; GS-441524 in lung): 5.601 µmol/kg; Cmax, RTP in kidney ([1]; 1h): 0 nmol/kg; Cmax, RTP in lung ([1]; 1h): 0 nmol/kg; Cmax, GS-441525 in brain ([1]; 4h): 0 nmol/kg; Cmax, RTP in kidney ([1]; 4h): 0 nmol/kg; Cmax, RTP in kidney ([1]; 24h): 0 nmol/kg; oral bioavailability [8]: 8.3%; inhibition at 0.069 µM ([5]; Severe acute respiratory syndrome coronavirus 2, Vero C1008, Omicon, 0.069 uM, Vero E6, replicates): 0%"
